{"source": "patent US20240165226A1", "about": "“COMBINATION TREATMENT OF CD38-EXPRESSING TUMORS” (GENMAB A/S, priority 2006, published 2024)", "test_system": "Daudi-luc tumor cells", "experiment": "In vivo SCID-luciferase experiments", "design": "species or system SCID mice", "description": "In this model tumor cells are transfected with firefly luciferase. Upon administration of luciferin (Molecular Probes, Leiden, The Netherlands) to the mice the labeled cells can be detected in vivo by bioluminescent imaging using a highly sensitive CCD camera, cf. Wetterwald et al., American Journal of Pathology 160(3), 1143-1153 (2002).\nDaudi cells were transfected with gWIZ luciferase from Gene Therapy Systems (San Diego, CA) and cultured in RPMI with 10% FCS, Pen/Strep, Sodium Pyruvate and 1 μg/ml puromycin (Sigma). Cells were analysed for luciferase expression (expressed in RLU/1×10^5 cells) in a luminometer and for CD38 expression by FACS. 2.5×10^6 luciferase-transfected Daudi cells/mouse were injected i.v. into SCID mice. Mice were treated with -003, -005, isotype control antibody (HuMab-KLH) or rituximab (anti-CD20 antibody). Antibodies were injected intraperitoneally. Four treatment settings were used (see Table 4). In the preventive setting, antibody (100 μg/mouse) and cells were administered simultaneously. In therapeutic setting I, antibody (300 μg/mouse) was administered 7 days after administration of cells. In therapeutic setting II, antibody (10 μg/mouse) was administered 14 days after administration of cells. In therapeutic setting III, antibody (100 μg/mouse) was administered 7 days after administration of cells. For imaging, mice were anesthetized by i.p. injection of a mixture of ketamine/xylazine/atropine. Synthetic D-Luciferin (sodium salt, Molecular Probes) was given i.p. at a dose of 25 mg/ml. Mice were then placed in a light tight box and after 3 min, imaging was started using a VersArray 1300B liquid nitrogen cooled CCD detector (Roper Scientific). Photons emitted from the luciferase were counted over an exposure period of 5 min. Under illumination black and white images were made for reference. MetaVue software (Universal Imaging Corp) was used for data collection and image analysis. Statistical significance of differences between groups was established using one-way analysis of variance with a Newman-Keuls post test using GraphPad PRISM version 3.02 (Graphpad Software Inc).", "data": [{"substance": "rituximab [anti-CD20 antibody, reference compound]", "values": [{"measurement": "inhibition of growth of tumor cells", "setting": "preventive setting, 100 μg/mouse, day 0, i.p.", "result": "inhibition observed"}, {"measurement": "inhibition of growth of tumor cells", "setting": "therapeutic setting I, 300 μg/mouse, day 7, i.p.", "result": "inhibition observed"}]}]}
